Assay results from EP0711275B1, “(THIO)CARBIMIDINIC ACID DERIVATIVES AND MEDICAMENTS CONTAINING THE SAME” (BOEHRINGER MANNHEIM GMBH, priority 1993, dated 1995).
≈ marks a conversion by molar mass, not a printed value. Read-outs that look alike come from different tables or passages of the source.

Experiments:
[1] = test system: HIV-1 (Isolat HTLV III B); experiment: MT2/MTT test system (antiviral activity in HIV-1-infected MT2 cells); assay type: cell-based; details: read-out: IC50-Werte MT2
Excerpt: (§1) Die antivirale Wirksamkeit einiger ausgewählter Substanzen wurde sowohl in vivo als auch in vitro (Hemmung der reversen Transkriptase RT) untersucht. a) MT2/MTT-Testsystem (in vivo) MT2-Zellen werden mit HIV-1 (Isolat HTLV III B) infiziert. Nach 7 Tagen Inkubation erfolgt der MTT-Test, der die Vitalität der Zellen bestimmt. Die Vitalität der Zellen korreliert mit dem Ausmaß der Virusproduktion. In der folgenden Tabelle werden IC50-Werte angegeben, d. h. diejenige Konzentration der Substanzen, die eine 50%-ige Inhibierung bewirken. b) Hemmung der RT (in vitro) In einem nicht radioaktiven Mikrotiterplattentest wird das Ausmaß der Inhibierung der Aktivität der RT bestimmt. Die Menge an eingebauten Nukleotiden in die zu synthetisierende DNA wird photometrisch bestimmt.

[2] = target: T1, reversen Transkriptase RT (Human immunodeficiency virus type 1 group M subtype B, UniProt P04585); experiment: Inhibition of RT, non-radioactive microtitre plate test; assay type: biochemical; details: inhibition of RT activity; incorporated nucleotides determined photometrically; read-out: IC50-Werte RT (converted)
T1 construct: Hemmung der reversen Transkriptase RT
Excerpt: as §1

[3] = Human immunodeficiency virus 1, 168 h, MT2-Zellen infected with HIV-1 (Isolat HTLV III B), 7 days incubation, MTT test of cell vitality

| Structure (SMILES) | IC50 [1, 3] | IC50 [2] | IC50 ([1]; Human immunodeficiency virus 1, MT2, 168 h) |
| --- | --- | --- | --- |
| N=C(NC(=S)Nc1ccc(Cl)cc1)SCc1ccccc1 [Beispiel 2e, N-(4-Chlorphenylaminothiocarbonyl)thiocarbamidinsäure-benzylester] | < 3 µg/mL | 7290 nM |  |
| CC(C)CC(C)SC(=N)NC(=S)Nc1ccc(Cl)cc1 (stereo not shown) [Beispiel 1, N-(4-Chlorphenylaminothiocarbonyl)thiocarbamidinsäure 2-(4-methylpentyl)ester] | 0.6 µg/mL (≈ 1.82 µM) | 1820 nM |  |
| N=C(NC(=S)Nc1ccc(Cl)cc1)SCc1cccc(Cl)c1 [Beispiel 2g, N-(4-Chlorphenylaminothiocarbonyl)thiocarbamidinsäure-3-chlorbenzylester] |  | 891 nM | < 3 µg/mL |
| N=C(NC(=S)Nc1ccc(Cl)cc1)SC1CCCCC1 [Beispiel 2f, N-(4-Chlorphenylaminothiocarbonyl)thiocarbamidinsäure-cyclohexylester] | < 3 µg/mL | 314 nM |  |
| CC(C)CC(C)SC(=N)NC(=S)Nc1cccc(F)c1 (stereo not shown) [Beispiel 2b, N-(3-Fluorphenylaminothiocarbonyl)thiocarbamidinsäure 2-(4-methylpentyl)ester] | 3.3 µg/mL (≈ 10.5 µM) | 3190 nM |  |
| N=C(NC(=S)Nc1ccc(Cl)cc1)Sc1ccccc1 [Beispiel 2n, N-(4-Chlorphenylaminothiocarbonyl)thiocarbamidinsäure-phenylester] |  | 2800 nM |  |
| CCCCSC(=N)NC(=S)Nc1ccc(Cl)cc1 [Beispiel 2j, N-(4-Chlorphenylaminothiocarbonyl)thiocarbamidinsäure-butylester] | < 3 µg/mL | 2520 nM |  |
